{"source": "patent US9908890B2", "about": "“Selective inhibitors of constitutive androstane receptor” (ST. JUDE CHILDREN'S RESEARCH HOSPITAL, priority 2014, dated 2018)", "key": {"CAR protein": {"test_system": "CAR protein", "assay": "Western blot of CAR protein in human primary hepatocytes", "format": "cell-based", "conditions": "5 μM CINPA1, 48 h", "description": "Briefly, CAR binding to PGC-1α coactivator peptide was determined by using the LanthaScreen® fluorescent coregulator peptide assay. Fluorescein-labeled PGC-1α peptide (125 nM) was complexed with GST-hCAR-LBD (5 nM) and Tb-anti-GST antibody (5 nM) as described in Experimental Procedures. […] Lysates were prepared, and CAR expression was analyzed by Western blot using CAR monoclonal antibody (Clone N4111, R&D Systems). β-actin was used as a loading control. […] Briefly, U2OS cells were transfected to express FLAG-hCAR1. […] Secondary antibody labeled with Alexa Fluor® 555 dye was used to visualize FLAG-tagged hCAR1 (shown in the second column) using a NikonC 1Si microscope. Nuclei were stained with DAPI (shown in the first column)."}, "[1]": {"test_system": "CAR binding to CYP2B6 and CYP3A4 promoter response elements", "assay": "Chromatin immunoprecipitation (CAR / RNA polymerase II occupancy at promoters)", "format": "cell-based, human", "description": "FIG. 8B and FIG. 8C show the fold enrichment of CAR at CYP2B6-dNR3 and CYP2B6-PBREM sites, respectively, in the promoter region following the indicated treatment in human primary hepatocytes. […] Protein complexes were cross-linked and chromatin was immunoprecipitated by using anti-CAR antibody or control IgG. CAR occupancy at two separate CYP2B6 promoter regions (dNR3 and PBREM) was determined by performing quantitative RT-PCR assays. Fold-enrichment normalized to IgG control was plotted. Data represent the mean±SD of 3 experiments. *, p<0.01 comparing CITCO treatment to DMSO treatment.\nFIG. 9A, FIG. 9B, and FIG. 9C show the fold enrichment of CAR at CYP2B6-dNR3, CYP3A4-XREM, and CYP2B6-dNR3 sites, respectively, in the promoter region following the indicated treatment in human primary hepatocytes or HepG2-hCAR1 cells, as indicated in the figures. Briefly, in FIG. 9A and FIG. […] 9C HepG2-hCAR1 stable cells were treated for […] with DMSO, 1 μM CITCO, 5 μM CINPA1, or 1 μM CITCO+5 μM CINPA1. Protein complexes were cross-linked and chromatin was immunoprecipitated by using anti-CAR antibody, anti-RNA polymerase II (RPol) antibody, or control IgG. CAR or RPol occupancy at the CYP2B6-dNR3 region and CYP3A4-XREM region was determined by performing quantitative RT-PCR assays. Fold-enrichment was normalized to IgG control. Data represent the mean±SD of 3 experiments. *, p<0.001 and #, p<0.01 comparing CITCO to DMSO samples. **, p<0.001 and ##, p<0.01 comparing CITCO+CINPA1 to CITCO samples.\nChIP was performed as described previously (Cherian, M. T., et al. (2012) J. Biol. Chem. 287, 23368-23380). Briefly, human hepatocytes in 6-well plates were maintained for 3-4 days in Williams E medium containing Primary Hepatocyte Maintenance Supplement (Life Technologies), with daily media changes. Nine wells were used for each treatment group. […] The HepG2-hCAR1 stable cells in FIG. 9 were treated with DMSO, 1 μM CITCO, 5 μM CINPA1, or 1 μM CITCO+5 μM CINPA1 for […]. In FIG. 9, the hepatocytes from donor 7 were treated with DMSO, 0.1 μM CITCO, 1 μM CINPA1, or 0.1 μM CITCO+1 μM CINPA1 for 45 min. Proteins were cross-linked with 1% formaldehyde for 10 min. Cell extracts were digested for 10 min with 50 units of micrococcal nuclease (New England Biolabs) at 37° C. and further sonicated to yield sheared DNA fragments having an average length of 200-1000 base pairs. The sonicated samples were pelleted by centrifugation, and the supernatant was diluted 3- to 5-fold with ChIP dilution buffer (0.01% SDS, 1.1% Triton X-100, 1.2 mM EDTA, 16.7 mM Tris-HCl, pH 8.1, 167 mM NaCl, and protease inhibitor cocktail). […] Quantitative RT-PCR assays were performed to determine the change in CAR occupancy at various sites of CAR binding. […]"}, "[2]": {"test_system": "FXR, GR, LXRα, LXRβ, PPARγ, RXRα, RXRβ, VDR", "assay": "GeneBLAzer nuclear receptor assays", "format": "cell-based", "conditions": "18 μM", "description": "FIG. 3B-FIG. 31 show representative data for treatment of GeneBLAzer® cells treated with DMSO (negative control), a predetermined concentration of the indicated nuclear receptor (“NR”) antagonist (positive control; concentration as detailed in Examples), or 18 μM of CINPA1 in the presence or absence the indicated NR agonist (i.e., indicated below treatments). NR-mediated β-lactamase activity was measured as a FRET ratio after 24 h treatment. Data is presented as % Activity, determined by setting the maximum FRET signal obtained for each receptor (in the respective agonist+DMSO wells) to 100%. eGugg=e Guggulsterone, Feno=Fenofibrate, GW9=GW9662, 22HC=22(S)-hydroxycholesterol, 9-cis RA=9-cis retinoic acid.\nGeneBLAzer® cells individually expressing the ligand-binding domains of either FXR, GR, LXRα, LXRβ, PPARγ, RXRα, RXRβ, or VDR fused to the GAL4-DNA binding domain (GAL4-DBD) were obtained from Life Technologies (Li, G., et al. (2012) Tox. Appl. Pharm. 258, 268-274; and Yu, D. D., et al. (2013) Bioorg. Med. Chem 21, 4266-4278). Upon activation with the respective agonist, β-lactamase is expressed under the transcriptional control of an Upstream Activator Sequence (UAS), and a FRET-based substrate (CCF2-AM) is used to measure the enzyme activity of β-lactamase."}, "[3]": {"conditions": "human hepatocytes, 0.1 μM CITCO + 1 μM CINPA1, 45 min"}}}
{"smiles": "CCOC(=O)Nc1ccc2c(c1)N(C(=O)CN(CC)CC)c1ccccc1CC2", "note": "[CINPA1]", "values": [{"measurement": "CAR protein level", "setting": "CAR protein", "result": "had no effect"}, {"measurement": "CITCO-mediated recruitment of CAR and RNA polymerase II to XREM (dNR3) of the CYP2B6 promoter", "setting": "[1]; [3]", "result": "effectively reduced"}, {"measurement": "CITCO-mediated recruitment of CAR and RNA polymerase II to XREM of the CYP3A4 promoter", "setting": "[1]; [3]", "result": "also reduced"}, {"measurement": "CAR recruitment to XREM (dNR3) of the CYP2B6 gene", "setting": "[1]; human primary hepatocytes, 3 donors, overnight, 1 μM CITCO or 5 μM CINPA1", "result": "prevents CAR recruitment"}, {"measurement": "attenuation of agonist-induced receptor activation", "setting": "[2]; with NR agonist", "result": "did not attenuate the agonist-induced activation of any of the receptors tested"}, {"measurement": "activation of nuclear receptors", "setting": "[2]; without agonist", "result": "did not activate any of the nuclear receptors tested"}]}
